Data published in ChEMBL document CHEMBL1208683, “Insights into binding modes of adenosine A(2B) antagonists with ligand-based and receptor-based methods” (Eur J Med Chem, 2010).

How the values were obtained:
Adenosine receptor A1 [1] = target: T1, Adenosine receptor A1 (Rattus norvegicus, UniProt P25099); experiment: Antagonist activity against rat adenosine A1 receptor; assay type: functional
T1 sequence (P25099 whole entry): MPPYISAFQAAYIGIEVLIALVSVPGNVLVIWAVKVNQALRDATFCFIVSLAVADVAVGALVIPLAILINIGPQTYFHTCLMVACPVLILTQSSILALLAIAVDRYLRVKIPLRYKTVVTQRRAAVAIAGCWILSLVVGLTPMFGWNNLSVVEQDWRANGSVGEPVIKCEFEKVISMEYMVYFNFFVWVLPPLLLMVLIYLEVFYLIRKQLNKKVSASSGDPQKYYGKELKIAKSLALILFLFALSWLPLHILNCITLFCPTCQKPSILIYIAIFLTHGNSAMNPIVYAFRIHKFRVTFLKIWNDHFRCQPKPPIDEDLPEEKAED

Adenosine receptor A2a [2] = target: Adenosine receptor A2a (Rattus norvegicus, UniProt P30543); experiment: Antagonist activity against rat adenosine A2A receptor; assay type: functional
Chain of Adenosine receptor A2a (Rattus norvegicus, UniProt P30543) (P30543 whole entry): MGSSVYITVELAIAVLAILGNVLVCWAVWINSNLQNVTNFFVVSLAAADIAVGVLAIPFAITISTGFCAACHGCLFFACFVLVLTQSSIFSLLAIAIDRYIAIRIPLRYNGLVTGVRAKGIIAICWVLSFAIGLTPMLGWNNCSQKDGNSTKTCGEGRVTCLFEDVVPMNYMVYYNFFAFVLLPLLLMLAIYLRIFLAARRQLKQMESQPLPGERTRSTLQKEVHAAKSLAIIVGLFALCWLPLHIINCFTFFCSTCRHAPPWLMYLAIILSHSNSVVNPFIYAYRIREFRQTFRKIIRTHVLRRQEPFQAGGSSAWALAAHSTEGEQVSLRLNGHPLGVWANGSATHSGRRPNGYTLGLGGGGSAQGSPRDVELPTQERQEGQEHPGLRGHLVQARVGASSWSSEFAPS

Adenosine receptor A2b = target: T2, Adenosine receptor A2b (Homo sapiens, UniProt P29275)
T2 sequence (P29275 whole entry): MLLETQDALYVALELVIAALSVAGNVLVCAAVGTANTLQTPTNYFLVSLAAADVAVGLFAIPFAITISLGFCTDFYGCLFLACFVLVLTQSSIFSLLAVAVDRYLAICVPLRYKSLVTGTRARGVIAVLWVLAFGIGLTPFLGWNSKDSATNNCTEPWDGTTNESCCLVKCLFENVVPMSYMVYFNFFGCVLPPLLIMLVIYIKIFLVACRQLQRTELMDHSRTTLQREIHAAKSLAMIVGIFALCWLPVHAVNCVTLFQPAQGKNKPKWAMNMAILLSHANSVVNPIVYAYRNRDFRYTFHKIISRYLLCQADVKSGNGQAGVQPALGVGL
Description: Antagonist activity against human adenosine A2B receptor

Adenosine receptor A3 = target: T3, Adenosine receptor A3 (Homo sapiens, UniProt P0DMS8)
T3 sequence (P0DMS8 whole entry): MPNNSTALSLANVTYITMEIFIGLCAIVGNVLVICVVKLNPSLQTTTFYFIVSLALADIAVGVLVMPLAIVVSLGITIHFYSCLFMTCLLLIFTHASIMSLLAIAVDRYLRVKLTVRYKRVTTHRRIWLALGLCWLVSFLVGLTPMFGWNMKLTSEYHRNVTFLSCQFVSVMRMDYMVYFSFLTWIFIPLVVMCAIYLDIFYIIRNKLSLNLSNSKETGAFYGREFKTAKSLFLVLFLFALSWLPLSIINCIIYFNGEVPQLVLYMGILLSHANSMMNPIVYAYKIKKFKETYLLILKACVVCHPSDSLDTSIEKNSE
Description: Antagonist activity against human adenosine A3 receptor

Adenosine receptor A2a [3] = target: T4, Adenosine receptor A2a (Homo sapiens, UniProt P29274)
T4 sequence (P29274 whole entry): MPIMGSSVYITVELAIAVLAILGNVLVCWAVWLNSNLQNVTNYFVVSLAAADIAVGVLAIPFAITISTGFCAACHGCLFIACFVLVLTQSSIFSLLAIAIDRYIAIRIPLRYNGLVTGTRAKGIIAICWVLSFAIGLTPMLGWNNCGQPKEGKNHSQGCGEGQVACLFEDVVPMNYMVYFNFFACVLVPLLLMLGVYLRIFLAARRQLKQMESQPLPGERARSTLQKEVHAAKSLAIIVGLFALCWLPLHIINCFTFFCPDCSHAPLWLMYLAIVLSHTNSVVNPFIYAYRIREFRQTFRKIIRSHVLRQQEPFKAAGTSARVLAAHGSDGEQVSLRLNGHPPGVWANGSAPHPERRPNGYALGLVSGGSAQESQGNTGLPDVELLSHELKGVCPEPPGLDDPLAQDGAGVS
Description: (§1) Antagonist activity against human adenosine A2A receptor

Adenosine receptor A2a [4] = target: T4, Adenosine receptor A2a; remark: listed apart in the source
Description: as §1

Adenosine receptor A1 [5] = target: T5, Adenosine receptor A1 (Homo sapiens, UniProt P30542)
T5 sequence (P30542 whole entry): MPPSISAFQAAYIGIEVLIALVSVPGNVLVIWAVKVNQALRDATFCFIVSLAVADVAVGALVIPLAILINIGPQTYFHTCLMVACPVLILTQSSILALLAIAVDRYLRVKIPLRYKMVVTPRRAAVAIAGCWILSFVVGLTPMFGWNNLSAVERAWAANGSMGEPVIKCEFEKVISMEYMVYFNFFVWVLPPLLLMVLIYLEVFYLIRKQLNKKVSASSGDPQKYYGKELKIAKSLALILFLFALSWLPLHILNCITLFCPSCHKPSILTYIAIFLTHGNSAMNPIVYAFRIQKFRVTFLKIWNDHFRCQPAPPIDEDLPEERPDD
Description: Antagonist activity against human adenosine A1 receptor

Row | Structure (SMILES) | Ki (Adenosine receptor A2b) [nM] | Ki (Adenosine receptor A3) [nM] | further results
1 | CCOc1cccc2c(C)nc(N=C(N)N)nc12 | 1780 | – | Ki (Adenosine receptor A1 [1]): 1330 nM; Ki (Adenosine receptor A2a [2]): 624 nM
2 | Cn1c(=O)c2c(nc(-c3ccccc3)n2O)n(C)c1=O | 1660 | > 9000 | Activity (Adenosine receptor A2a [3]): 12%
3 | Cn1c(=O)c2[nH]c(-c3ccc(S(=O)(=O)NCC(=O)O)cc3)nc2n(C)c1=O | – | > 10000 | –
4 | COc1ccc2c(C)nc(NC3=NCC(=O)N3)nc2c1 | 112 | – | Ki (Adenosine receptor A1 [1]): 1290 nM; Ki (Adenosine receptor A2a [2]): 2400 nM

Further lines, with some results ahead:

Row | Ki (Adenosine receptor A2b) [nM] | Ki (Adenosine receptor A3) [nM] | Structure (SMILES) | further results
5 | 1290 | 2810 | Nc1nc(-n2cncn2)c2nnn(Cc3ccccc3F)c2n1 | Ki (Adenosine receptor A2a [4]): 400 nM; Ki (Adenosine receptor A1 [5]): 2960 nM
6 | – | 54 | CCCn1c(=O)c2nc(-c3cnn(Cc4cc(C(F)(F)F)ccc4Cl)c3)[nH]c2n(CCC)c1=O | –
7 | – | > 1000 | CCCn1c(=O)[nH]c2[nH]c(-c3ccc(S(=O)(=O)NCc4ccccc4)cc3)nc2c1=O | –
